For the data set, the system named is liver cells. The data set is described as follows: Distribution ratio into fractions and efflux scoring of a fluorescent drug in cultured liver cells (Steps 0-6, plate reader). The class given is in vitro ADME, rat. How it is done:
In this step, liver cells are prepared and cultured for verifying an effect of a drug. An example will be shown below. The preparation of liver cells was made according to an in-situ collagenase perfusion method. The detail is as follows. A rat (5 to 6 weeks old) is subjected to laparotomy under pentobarbital anesthesia, and a catheter is inserted into the portal vein and a pre-perfusion fluid (Hanks' solution not containing Ca2+ and Mg2+ but containing EGTA) is injected.
Liver cells prepared by the in-situ collagenase perfusion method as described above are suspended in a medium, and the liver cells in the suspension at a density of 5×10^5 cells/mL are seeded on a commercially available collagen-coated culture dish, to conduct two dimensional plane culture (for example, sandwich culture). The seeding density, medium, culture plate 001 are not particularly limited.
After seeding, culture is started using a CO2 incubator under conditions of 5% CO2 and 37° C. After 18 hours or more elapse, a first medium exchange is performed. Although a medium used for culture from 18 hours after the seeding is not particularly limited, in this example, a medium obtained by excluding FCS from a medium (10% FCS+) to make a medium (herein after medium (FCS−)) and then adding matrigel thereto was used. After that, medium exchange is performed with the medium (FCS−) every 24 hours.
In this step, cells cultured in Step 0 are conditioned to a condition suitable for a drug assessment. An example will be shown below. The culture supernatant of cells cultured for 4 days in Step 0 is removed, […] of a Hanks' solution is added as a buffer, and then incubation is performed at 37° C. for 10 minutes (FIG. 2, Step 1).
In this step, a drug solution to be assessed is administered to cells. An example will be shown below. After removing the buffer, 200 μL of 10 μM CDF (fluorescent reagent) is added to a well, incubation is performed at 37° C. for 30 minutes, the well is then retained at 4° C. for 5 minutes (FIG. 2, Step 2). […]

Setting [1] is: Pattern 1, drug incubated 37° C. 30 minutes, fluorescence measurement.

1 substance from patent US10830763B2, “Component analysis device, drug component analysis device, component analysis method, and drug component analysis method” (Hitachi High-Technologies Corporation, priority 2015, dated 2020) can be followed below.

As to Rhodamine 123, under setting [1], the “ratio of the bile duct excretion drug amount relative to the whole drug amount taken in the cells (BiRD), (B1-B2)/(C1+C2)” value is given as 4.92 and the “ratio of the drug amount discharged via a transporter relative to the blood-vessel-side discharge drug amount (RexEMTP), (B2-B3)/B2” value stood at 52.52. Besides, where the note is “Pattern 2: total sum of Steps 4, 5 and 6 taken as 100%, Step 4 Hanks' solution 37° C. 30 minutes, in %”, the “sup fraction (first blood-vessel-side discharge fraction, S1)” value turned out to be 39.29.
